Measured values reported in patent US9044476B2, “Use of uraria in promoting osteogenesis or providing neuroprotection” (TAIPEI MEDICAL UNIVERSITY, priority 2013, dated 2015).

Experiments:
Type in all cases: cell-based, human
[1] = test system: HOb cells; assay: Cell viability (MTT) assay in HOb cells; conditions: 100 μM, 72 hours
Protocol: (§1) HOb cells were seeded in 96-well plates. Twenty-four hours after plating, the old medium was discarded and the cells were treated with tested compounds (100 μM) in Osteoblast Differentiation Medium for 72 h. Cell viability was assessed using the MTT assay. Data are shown as mean±SD (n=3). *P<0.05 and **P<0.01 as compared with control (n=3).
Human osteoblasts (HOb) were primary cells derived from a person from a normal femoral bone and obtained from Cell Applications (San Diego, Calif., USA). HOb cells were grown in Osteoblast Growth Medium and maintained at 37° C. in 5% CO2 humidified atmosphere. The medium was changed every other day. To maintain exponential growth, the cells were subcultured every 7 days. […]
The cell viability of U. crinita extract and its constituents were determined using the MTT assay as described elsewhere (Scudiero et al., 1988). […] The absorbance at 600 nm was recorded using an ELISA reader. […]

[2] = test system: HOb cells; assay: Alkaline phosphatase (ALP) assay in HOb cells; conditions: compounds 100 μM, 72 h
Protocol: as §1, with “extracts” for “compounds”, “μg/ml)” for “μM)”, “ALP activity” for “Cell viability”, “p-nitrophenyl phosphate disodium substrate.” for “MTT assay.”
as §1, with “ALP activity” for “Cell viability”, “p-nitrophenyl phosphate disodium substrate.” for “MTT assay.”
(§2) Human osteoblasts (HOb) were primary cells derived from a person from a normal femoral bone and obtained from Cell Applications (San Diego, Calif., USA). HOb cells were grown in Osteoblast Growth Medium and maintained at 37° C. in 5% CO2 humidified atmosphere. The medium was changed every other day. To maintain exponential growth, the cells were subcultured every 7 days. HOb cells were used for cell viability, differentiation, and mineralization assays.
The alkaline phosphatase (ALP) activities of U. crinita extract and its constituents were measured with p-nitrophenyl phosphate as the substrate. HOb cells were seeded in 96-well plates at a density of 4×10^3 cells per well. Twenty-four hours after plating, the old medium was discarded and the cells were treated with tested extracts or compounds in Osteoblast Differentiation Medium. After 72 hours incubation, the medium was discarded and the cells rinsed twice with cold PBS, and cells were lysed with lysis buffer (PBS containing 0.1% Triton X-100). The cellular protein concentration in supernatant was determined after incubation with BCA (bicinchoninic acid) protein reagent for 1 hour at 37° C. The reaction was stopped by adding 1M NaOH, and absorbance measured at 560 nm. Furthermore, the ALP activity in supernatant was assayed by incubation for 1 hour at 37° C. in 0.1 M NaHCO3—Na2CO3 buffer, pH 10, containing 0.1% Triton X-100, 2 mM MgSO4, and 6 mM p-nitrophenyl phosphate. The reaction was stopped by adding 1M NaOH and absorbance was measured at 405 nm. Each value was normalized to the protein concentration.

[3] = test system: HOb cells; assay: Mineralized matrix formation assay (Alizarin Red-S) in HOb cells; conditions: for formation of mineralized bone nodules: compounds 100 μM, 12 days
Protocol: (§3) HOb cells were plated in 24-well plates. Three days after plating, the old medium was discarded and the cells were treated with tested extracts (100 μg/ml) in mineralizing media (Osteoblast Differentiation Medium containing ascorbic acid (50 μg/ml) and β-glycerophosphate (10 mM) for 12 days. At the end of experiment, cultures were fixed in 75% ethanol, and mineralized nodule formation was assessed by Alizarin Red-S staining. The bound staining was eluted with a solution of 10% cetylpyridinium chloride and quantified using a microtiter plate reader. Data are shown as mean±SD (n=3). *P<0.05 and **P<0.01 as compared with control (n=3).
as §3, with “tested compounds” for “tested extracts”, “(100 μM)” for “(100 μg/ml)”, “Differentiation Medium)” for “Differentiation Medium”
as §2
The mineralization activities of U. crinita extract and its constituents were measured by Alizarin Red-S staining of calcium. HOb cells were seeded in 24-well plates at a density of 7×10^4 cells per well. Three days after plating, the old medium was discarded and the cells were treated with tested extracts or compounds in mineralizing media (Osteoblast Differentiation Medium) containing ascorbic acid (50 μg/ml) and β-glycerophosphate (10 mM) for 12 days. At the end of experiment, cultures were fixed in 75% ethanol, and calcium deposits were stained for 15 minutes at room temperature with Alizarin Red-S solution (40 mM, pH 4.2). The bound staining was eluted with a solution of 10% (w/v) cetylpyridinium chloride in 10 mM sodium phosphate (pH 7.0) and quantified using a ELISA reader at 550 nm.

Structure (SMILES) | cell viability [1] [%] | ALP activity [2] [%] | formation of mineralized bone nodules [3] [%] | mineralization activity, ranking in words ([3]; isolated compounds, 100 μM)
N[C@@H](Cc1c[nH]c2ccccc12)C(=O)O [Compound 5, tryptophan] | 80.43±1.11 |  |  | 
O=c1cc(-c2ccc(O)cc2)oc2cc(O)c(C3OCC(O)C(O)C3OC3OCC(O)(CO)C3O)c(O)c12 (stereo not shown) [Compound 3] |  | 109.68±2.20 | 150.10±0.80 | most potent mineralization activity
CC1=CC(=O)CC(C)(C)[C@H]1CC[C@@H](C)O[C@@H]1O[C@H](CO)[C@@H](O)[C@H](O)[C@H]1O [Compound 9, byzantionoside B] |  | 114.81±0.18 | 129.21±6.13 | 
O=C1c2c(O)cc(O)cc2OCC1c1ccc(O)cc1O (stereo not shown) [Compound 1, dalbergioidin] |  | 114.10±4.41 | 107.09±2.80 | 
Nc1ncnc2c1ncn2[C@@H]1O[C@H](CO)[C@@H](O)[C@H]1O [Compound 7, adenosine] |  | 108.70±4.14 | 125.21±3.75 | 
